According to US10017538B2, “Bioactive peptides having insecticide activity” (The United States of America, as represented by the …, priority 2016, dated 2018):

test system: Solenopsis invicta workers; test: Injection bioassay of peptides in fire ant workers, adult mortality; type: in vivo; details: peptide with Cys-Cys S-S bond in insect saline, injected into fire ant workers
Protocol: Peptides identified herein are injected into the hemocoel of Solenopsis invicta workers using a Nanoliter 2000™ System (World Precision Instruments) with pulled borosilicate needles.
(§1) To determine the negative impact these peptides may have against fire ants, synthesis of potential candidates of small peptides with Cysteine-Cysteine S—S bond at the N- and C-terminal ends of SEQ ID NO: 2 and SEQ ID NO: 14. Synthesis of the peptides is described above. These peptides were dissolved in an insect saline (composition in mM: NaCl 126, KCl 5.4, NaH2PO4 0.17 and KH2PO4 0.22, pH 7.4) or the saline only control were injected into fire ant workers and phenotypic effects monitored.
as §1, with “NO:2-SEQ” for “NO: 2 and SEQ”, “NO:14.” for “NO: 14.”

| Substance | adult mortality compared to the saline control |
| --- | --- |
| CLKIGSHFC (Synthetically generated peptide) [SEQ ID NO: 3, synthetically generated peptide, loop-constrained by flanking cysteines] | significant increase in adult mortality |
| CRGATPMSC (Synthetically generated peptide) [SEQ ID NO: 12, synthetically generated peptide, loop-constrained by flanking cysteines] | significant increase in adult mortality |
| CGSHFC (Synthetically generated peptide) [SEQ ID NO: 14, short synthetically generated peptide] | did not affect adult mortality |
| CQKIGSHFC (Synthetically generated peptide) [SEQ ID NO: 2, synthetically generated peptide, loop-constrained by flanking cysteines] | increase in adult mortality |
| CIQQGSHFC (Synthetically generated peptide) [SEQ ID NO: 4, synthetically generated peptide, loop-constrained by flanking cysteines] | significant increase in adult mortality |
| CMARYMSAC (Synthetically generated peptide) [SEQ ID NO: 11, synthetically generated peptide, loop-constrained by flanking cysteines] | significant increase in adult mortality |
